Data reported in PMC6325219, “Preclinical Characterization of NVR 3-778, a First-in-Class Capsid Assembly Modulator against Hepatitis B Virus” (Antimicrobial Agents and Chemotherapy, 2018).
Where “and” joins values, the source holds several entries; their conditions need not be identical. Equal values may be shown once. Where a name gives a salt, the structure may show the parent alone. Marks after values point to notes of the source that are not given here.

What was measured:
[1] = tested on: HBV rtL180M/M204V variant; test: microbe, parasite or virus in culture; assay type: cell-based, hepatitis B virus; conditions: for EC50 fold change, rtL180M/M204V: ratio of mean EC50 against variant over WT HBV, HepG2 cells
Description: (§1) Plasmids containing HBV DNA with rtN236T, rtA181V, rtA181V/N236T, and rtL180M/M204V/N236T were generated using the GT B WT or rtL180M/M204V DNA-containing plasmids and site-directed mutagenesis (Agilent Technologies). A panel of nine different HBV core variants (cW102G, cW102R, cI105V, cI105L, cI105T, cT109S, cT109M, cT109I, and cY118F) was generated, also using the GT B WT DNA-containing plasmid and site-directed mutagenesis. The full-length genome from all plasmids was sequenced to confirm that only the intended nucleotide change(s) was present. Finally, HBV sequences from genotypes A (GenBank accession number AF305422), C (GenBank accession number AB033550), D (GenBank accession number V01460), E (GenBank accession number AB274971), F (GenBank accession number AB036912), G (GenBank accession number AF160501), and H (GenBank accession number AB375159) were gene synthesized as 1.1 times the genome length together with part of the CMV promoter at the 5′ end. The gene-synthesized piece was validated by sequencing and subcloned into the pCMV-HBV plasmid using the restriction sites SalI and NdeI (Genewiz, USA).
(§2) HepG2 cells were seeded in 96-well plates at a density of 20,000 cells/well and allowed to attach overnight at 37°C in 5% CO2. Cells were cotransfected with the HBV plasmids (100 ng/well) and a Gaussia expression plasmid (10 ng/well) (Thermo Scientific) using the Lipofectamine LTX Plus transfection reagent (Life Technologies). Transfection mixtures were removed after overnight incubation, and cells were treated with serially diluted NVR 3-778 at a final dimethyl sulfoxide (DMSO) concentration of 0.5%. After 3 days of incubation with the compound, the supernatants were collected and secreted Gaussia luciferase was measured using a Gaussia Flash luciferase assay kit (Thermo Scientific). Cells were lysed with 0.33% NP-40 (Thermo Scientific), and the cytoplasmic fractions were treated with 2 units of Turbo DNase (Invitrogen) and 10 units of S7 nuclease (Roche) in CutSmart buffer (New England Biolabs) containing 25 µM CaCl2 (G-Biosciences) at 37°C for 60 min, followed by inactivation of the enzymes at 75°C for 15 min. Samples were diluted into lysis buffer (Affymetrix) containing 2.5 µg proteinase K (Affymetrix) at 50°C for 40 min. Intracellular encapsidated HBV DNA was denatured for 30 min at 25°C in 0.2 M NaOH (Sigma) and incubated with HBV DNA probes designed to hybridize to the minus-strand HBV DNA (Affymetrix). The denatured DNA was subsequently detected using a QuantiGene assay kit, according to the branched DNA (bDNA) assay recommended by the manufacturer (Affymetrix).
(§3) To determine percent inhibition, the mean background signal from wells containing only culture medium was subtracted from the signal for all other samples, and percent inhibition at each compound concentration was calculated by normalization to the signals for HepG2.2.15 cells treated with 0.5% DMSO. […] Both CalcuSyn and MacSynergy II (Ann Arbor, MI) software were used to evaluate the effect of compound combinations ([27]). After data analysis at the 95% confidence level, values of synergy or antagonism of <25 µM^2% were defined as insignificant, those between 25 and 50 µM^2% were defined as minor, those between 50 and 100 µM^2% were defined as moderate, and those of >100 µM^2% were defined as strong.

HBV rtA181V variant = test: microbe, parasite or virus in culture; assay type: cell-based, hepatitis B virus; conditions: for EC50 fold change, rtA181V: ratio of mean EC50 against variant over WT HBV, HepG2 cells
Description: as §1, §2, §3

[2] = tested on: HBV rtL180M/M204V/N236T variant; test: microbe, parasite or virus in culture; assay type: cell-based, hepatitis B virus; conditions: ratio of mean EC50 against variant over WT HBV, HepG2 cells
Description: as §1, §2, §3

[3] = tested on: nucleoside-resistant HBV variants; test: Transient-transfection antiviral study, panel of nucleoside-resistant HBV variants (summary statements); assay type: cell-based, hepatitis B virus; conditions: versus WT HBV
Description: (§5) Cells were cotransfected with the HBV plasmids (100 ng/well) and a Gaussia expression plasmid (10 ng/well) (Thermo Scientific) using the Lipofectamine LTX Plus transfection reagent (Life Technologies). Transfection mixtures were removed after overnight incubation, and cells were treated with serially diluted NVR 3-778 at a final dimethyl sulfoxide (DMSO) concentration of 0.5%. After 3 days of incubation with the compound, the supernatants were collected and secreted Gaussia luciferase was measured using a Gaussia Flash luciferase assay kit (Thermo Scientific). […] Samples were diluted into lysis buffer (Affymetrix) containing 2.5 µg proteinase K (Affymetrix) at 50°C for 40 min. Intracellular encapsidated HBV DNA was denatured for 30 min at 25°C in 0.2 M NaOH (Sigma) and incubated with HBV DNA probes designed to hybridize to the minus-strand HBV DNA (Affymetrix). The denatured DNA was subsequently detected using a QuantiGene assay kit, according to the branched DNA (bDNA) assay recommended by the manufacturer (Affymetrix).

HBV rtN236T variant = assay type: cell-based, hepatitis B virus; conditions: ratio of mean EC50 against variant over WT HBV, HepG2 cells
Description: as §1, §2, §3

[4] = tested on: HBV rtA181V/N236T variant; assay type: cell-based, hepatitis B virus; conditions: ratio of mean EC50 against variant over WT HBV, HepG2 cells
Description: as §1, §2, §3

HBV GT B (wild-type HBV) [5] = test: Transient-transfection antiviral study in HepG2 cells, GT B (wild-type HBV); assay type: cell-based, hepatitis B virus; conditions: Hepatitis B virus, HepG2, read-out: WT EC50
Description: as §5

[6] = tested on: HBV core protein variant Y118F; parameters: method as in PMID 26598693; conditions: previously published results; cited from earlier work
[7] = tested on: HBV core protein variant I105T; parameters: method as in PMID 26598693; conditions: previously published results; cited from earlier work
[8] = tested on: HBV core protein variant I105L; parameters: method as in PMID 26598693; conditions: previously published results; cited from earlier work
[9] = tested on: HBV core protein variant T109S; parameters: method as in PMID 26598693; conditions: previously published results; cited from earlier work
[10] = tested on: HBV core protein variant I105V; parameters: method as in PMID 26598693; conditions: previously published results; cited from earlier work
HBV GT B (wild-type HBV) [11] = tested on: HBV GT B (wild-type HBV); parameters: method as in PMID 26598693; conditions: reference; previously published results; cited from earlier work
[12] = tested on: HBV core protein variant T109M; parameters: method as in PMID 26598693; conditions: previously published results; cited from earlier work
[13] = tested on: HBV core protein variant T109I; parameters: method as in PMID 26598693; conditions: previously published results; cited from earlier work
HBV [14] = test: Combination study of NVR 3-778 with nucleos(t)ide analogs in HepG2.2.15 cells (MacSynergy II, CalcuSyn); assay type: cell-based, hepatitis B virus (GT D); conditions: in combination with NVR 3-778; for Antagonism / Synergy: HepG2.2.15 cells, 6 days, MacSynergy II, 95% confidence; for CalcuSyn-predicted effect: based on overall CI; for MacSynergy-predicted effect: volumes <25 µM^2% defined as insignificant
Description: The effect of the compound combinations on cell viability was evaluated by measuring the intracellular ATP levels of HepG2.2.15 cells.
(§4) HepG2.2.15 cells were seeded in 96-well plates at a density of 40,000 cells/well and incubated with serially diluted compounds at a final DMSO concentration of 0.5%. In combination studies, cells were treated with compounds either alone or in combination after combining the compounds in a checkerboard format. In studies examining the effect of human serum, serially diluted NVR 3-778 was added into cell culture medium containing 0% to 40% human serum (BioreclamationIVT). Cells were incubated with the compounds for 3 days, after which the medium was removed, fresh medium containing the compounds was added to the cells, and the cells were incubated for another 3 days prior to harvesting of the supernatants or cells for antiviral assays. To quantify intracellular encapsidated rcDNA or encapsidated pgRNA, cells were first solubilized using lysis buffer containing 1% NP-40 and 10 mM CaCl2. The cytoplasmic fraction was then treated with S7 nuclease (6 units) to remove nonencapsidated nucleic acids, after which the S7 nuclease was inactivated by the addition of EDTA (0.5 M). To quantify extracellular HBV DNA or HBV RNA, supernatants from HepG2.2.15 cells were treated with Turbo DNase at 37°C for 60 min, followed by inactivation of DNase at 75°C for 15 min. The levels of HBV DNA were determined by a bDNA assay as described above (Affymetrix). Supernatants or cell lysates containing HBV RNA were treated with proteinase K (2.5 µg) at 50°C for 40 min, transferred to a capture plate containing HBV RNA probe sets, and hybridized overnight at 55°C. Captured HBV RNA was measured by the addition of a chemiluminescent substrate using a QuantiGene assay (Affymetrix). To determine the cytotoxicity effect of the compounds on proliferating cells, HepG2.2.15 cells were seeded in 96-well plates at a density of 10,000 cells/well and incubated with serially diluted compounds at a final DMSO concentration of 0.5% for 3 days, after which the medium was removed, fresh medium containing the compounds was added to the cells, and the cells were incubated for another 3 days. At day 6, the CellTiter-Glo reagent was added to the cells and viability was determined according to the manufacturer’s protocol (Promega). Luminescence signals were measured at 0.2 s using a Victor X4 multimode plate reader (PerkinElmer).
as §3

HBV [15] = test: Antiviral studies using HepG2.2.15 cells (HBV DNA and HBV RNA readouts); assay type: cell-based, hepatitis B virus (GT D); conditions: HepG2.2.15 cells
Description: as §4, with “In” for “HepG2.2.15 cells were seeded in 96-well plates at a density of 40,000 cells/well and incubated with serially diluted compounds at a final DMSO concentration of 0.5%. In”, “To quantify extracellular HBV DNA or HBV RNA, supernatants from HepG2.2.15 cells were treated with Turbo DNase at 37°C for 60 min, followed by inactivation of DNase at 75°C for 15 min.” left out, “To determine the cytotoxicity effect of the compounds on proliferating cells, HepG2.2.15 cells were seeded in 96-well plates at a density of 10,000 cells/well and incubated with serially diluted compounds at a final DMSO concentration of 0.5% for 3 days, after which the medium was removed, fresh medium containing the compounds was added to the cells, and the cells were incubated for another 3 days.” left out

HBV T109M core variant = tested on: HBV T109M core variant; parameters: method as in doi:10.1016/S0168-8278(18)30439-2; conditions: phase 1b; cited from earlier work

| Structure (SMILES) | EC50 fold change, rtL180M/M204V [1] | EC50 fold change, rtA181V (HBV rtA181V variant) | EC50 fold change, rtL180M/M204V/N236T [2] | EC50 fold change, rtN236T (HBV rtN236T variant) | EC50 fold change, rtA181V/N236T [4] | EC50 (HBV GT B (wild-type HBV) [5]) [nM] | EC50 FC, Y118F [6] [fold] | EC50 FC, I105T [7] [fold] | EC50 FC, I105L [8] [fold] | EC50 FC, T109S [9] [fold] | EC50 FC, I105V [10] [fold] | EC50 FC, wild type (HBV GT B (wild-type HBV) [11]) [fold] | EC50 FC, T109M [12] [fold] | EC50 FC, T109I [13] [fold] | Antagonism (HBV [14]) [μM^2%] | Synergy (HBV [14]) [μM^2%] | CalcuSyn-predicted effect (HBV [14]) | MacSynergy-predicted effect (HBV [14]) | further results |
| --- | --- | --- | --- | --- | --- | --- | --- | --- | --- | --- | --- | --- | --- | --- | --- | --- | --- | --- | --- |
| CC(C)OC(=O)OCOP(=O)(CO[C@H](C)Cn1cnc2c(N)ncnc21)OCOC(=O)OC(C)C [TDF, Tenofovir disoproxil fumarate] | 1.1 ± 0.3^d fold | 1.4 ± 0.05^d fold | 2.9 ± 1.5^b fold | 2.2 ± 1.0^b fold | 2.8 ± 1.4^b fold | 32 ± 15 | – | – | – | – | – | – | – | – | – | – | – | – | EC50 ([1]; Hepatitis B virus, HepG2, read-out: EC50 (mean), rtL180M/M204V variant): 34 nM; EC50 (HBV rtA181V variant; Hepatitis B virus, HepG2, read-out: EC50 (mean), rtA181V variant): 43 nM; Reduction of antiviral activity against the variants that contained rtN236T [3]: about 3 fold |
| COC(=O)C1=C(CN2CCOCC2)NC(c2nccs2)=N[C@@H]1c1ccc(F)cc1Br [NVR-010-001-E2] | – | – | – | – | – | – | 3.7 | 1.2 | 0.49 | 0.43 | 1.3 | 1 | 2.8 | 9.2 | – | – | – | – | – |
| C[C@H](Cn1cnc2c(N)ncnc21)OCP(=O)(O)O [TFV, tenofovir] | – | – | – | – | – | – | – | – | – | – | – | – | – | – | −7.3 | 18.5 | Slight to moderate synergy | Additive | Effect on HBV DNA production (HBV [15]): inhibited HBV DNA production; Effect on intracellular encapsidated HBV RNA and secreted HBV RNA (HBV [15]; dose-dependent): increased the levels |
| O=C(NCc1cnc(C(F)(F)F)s1)c1ccc2c(c1)NC(=O)c1ccccc1S2(=O)=O [ABI-H0731] | – | – | – | – | – | – | – | – | – | – | – | – | – | – | – | – | – | – | Antiviral response in a patient with a preexisting T109M core variant (HBV T109M core variant): reduced antiviral response |
| C=C1[C@H](CO)[C@@H](O)C[C@@H]1n1cnc2c(=O)[nH]c(N)nc21 [ETV, entecavir] | 31 fold and 31 ± 16^a fold | 2.2 ± 0.5^a fold | 14 fold and 14 ± 4^a fold | 0.67 ± 0.22^d fold | 1.8 ± 0.6^d fold | 1.4 ± 0.4 | – | – | – | – | – | – | – | – | −16.5 | 1.0 | Slight to moderate synergy | Additive | – |
| COC(=O)C1=C(C)NC(c2ncc(F)cc2F)=N[C@H]1c1ccc(F)cc1Cl [Bay 41-4109] | – | – | – | – | – | – | 8.2 | 1.5 | 0.44 | 0.40 | 1.3 | 1 | 3.7 | 21 | – | – | – | – | – |
